# From US7034020B2, “Derivatives of butyric acid and uses thereof” (The University of Arkansas for Medical Science, priority 1999, dated 2006)
# System: KLH-specific Th1 cells (clone D3)
# Experiment: Th1 cell anergy induction in vitro (primary culture with MEB, secondary culture restimulation)
# Type: cell-based, C57BL/10 mice
# Details: for Proliferation in antigen-stimulated secondary cultures: secondary: KLH
# Procedure: KLH-specific Th1 cells (clone D3) are incubated in primary cultures with (FIG. 5A) MEB (1 mM) and/or IL-2 (10% Con A CM), or (FIG. 5B) MEB (1 mM) and/or KLH (50 μg/ml). After 2 days, the Th1 cells are isolated from the primary cultures, rested, and then re-incubated in secondary cultures stimulated with antigen (KLH, 50 μg/ml) or IL-2 (10% Con A CM).
# Th1 cells are treated with MEB in the presence or absence of antigen or exogenous IL-2.
# The ability of the butyrate derivative to induce Th1 cell anergy is examined using a protocol previously developed for n-butyrate-induced T cell tolerance (Gilbert and Weigle, 1993). Briefly, Th1 cells are incubated in primary cultures at 2.5×10^5 cells/ml, along with MEB (1 mM), KLH (50 μg/ml), and 5×10^6/ml irradiated syngeneic spleen cells as APC. Alternatively, the Th1 cells are incubated in primary cultures containing MEB and IL-2 (10% Con A CM). Control primary cultures receive MEB and APC, but no antigen or IL-2. After incubation for 24 h at 37° C., the cells in the primary cultures are harvested, washed free of MEB, and reincubated at 2.5×10^5 ml in secondary cultures without MEB. The Th1 cells in the secondary cultures are stimulated with 10% IL-2-cQntaining Con A CM, or with 5×10^6/ml irradiated syngeneic spleen cells as APC, and KLH. After 2 days in the secondary cultures, the Th1 cells are assessed for proliferation (pulsed with [^3H]-TdR for 12 h).
compound,measurement,setting,value
"CCCC(=O)OCCN1CCOCC1.Cl [MEB, 2-(4-Morpholinyl)ethyl butyrate hydrochloride]",Proliferation in antigen-stimulated secondary cultures,primary culture: IL-2 and MEB (1 mM),retain their ability to proliferate to antigen
same,Proliferation in antigen-stimulated secondary cultures,primary culture: MEB alone (1 mM),retain their ability to proliferate in response to antigen stimulation
same,Proliferation in secondary cultures stimulated with exogenous IL-2,"primary culture: antigen (KLH) and MEB (1 mM), secondary: IL-2",can still proliferate
same,Proliferation in antigen-stimulated secondary cultures,primary culture: antigen (KLH) and MEB (1 mM),lose their ability to proliferate
